Like-named read-outs stand apart in the source and are kept apart here.

Consider six molecules from patent US20120157717A1, “METHODS AND COMPOSITIONS FOR PRODUCING LINEAR ALKYL BENZENES” (LS9, INC., priority 2010, published 2012).

In one data set the target is T1, PCC7942_orf1594 protein (Synechococcus elongatus, UniProt Q54765).
T1 construct: His-tag (C); made in house; host or cells: E. coli BL21 (DE3)
T1 sequence (Q54765 1-341): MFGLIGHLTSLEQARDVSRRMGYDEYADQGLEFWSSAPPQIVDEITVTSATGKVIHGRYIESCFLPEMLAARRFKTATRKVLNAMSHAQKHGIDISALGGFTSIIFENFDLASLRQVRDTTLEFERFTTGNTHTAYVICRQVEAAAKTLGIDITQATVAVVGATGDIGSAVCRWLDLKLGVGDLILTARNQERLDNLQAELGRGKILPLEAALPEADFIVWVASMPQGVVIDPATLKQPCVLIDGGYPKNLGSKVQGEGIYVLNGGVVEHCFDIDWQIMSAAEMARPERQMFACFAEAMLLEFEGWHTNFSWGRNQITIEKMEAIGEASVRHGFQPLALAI
The data set is described as follows: acyl-ACP or acyl-CoA reductase enzyme assay (aldehyde formed, GC/MS). In kind it is biochemical, Synechococcus elongatus PCC7942. As for the experimental part: The genomic DNA encoding S. elongatus […] orf1594 (SEQ ID NO:65) was cloned into the NcoI and XhoI sites of vector pET-28b under the control of the T7 promoter. The resulting PCC7942_orf1594 protein contained a C-terminal His-tag. An E. coli BL21 strain (DE3) (Invitrogen) was transformed with the plasmid and PCC7942_orf1594 protein was expressed and purified as described in Example 22. The protein solution was stored in the following buffer: 50 mM sodium phosphate, pH 7.5, 100 mM NaCl, 1 mM THP, 10% glycerol. Protein concentration was determined using the Bradford assay (Biorad). 2 mg/mL of PCC7942_orf1594 protein was obtained.
To test PCC7942_orf1594 protein for acyl-ACP or acyl-CoA reductase activity, the following enzyme assays were set-up. 100 μL reactions were set-up in 50 mM Tris-HCl buffer at pH 7.5 with the following components at their respective final concentrations: 10 μM of purified PCC7942_orf1594 protein, 0.01-1 mM acyl-CoA or acyl-ACP, 2 mM MgCl2, 0.2-2 mM NADPH. The reactions were incubated for 1 h at 37° C. and where stopped by adding 100 μL ethyl acetate (containing 5 mg/l 1-octadecene as internal standard). Samples were vortexed for 15 min and centrifuged at max speed for 3 min for phase separation. 80 μL of the top layer were transferred into GC glass vials and analyzed by GC/MS as described in Example 26. The amount of aldehyde formed was calculated based on the internal standard.

The subject of data set [1] is Prochlorococcus marinus CCMP1986 PMM0532 (NP-892650; putative decarbonylase).
Setting [2] is: in the presence of 2 mM NADPH, 10 μM purified enzyme, 2 mM MgCl2, pH 7.5, 1 h at 37° C., read-out: Km for the reduction of the acyl substrate.

The Km is the concentration of substrate that gives half-maximal velocity. Turning to octadecenoyl-CoA, the Km on PCC7942_orf1594 protein (setting [2]) is 82 ± 22 µM. For octadecenoyl-ACP, in the data set with PCC7942_orf1594 protein (setting [2]), the Km was determined as 7.8 ± 2 µM. Consider `NC(=O)C1=CN([C@@H]2O[C@H](COP(=O)(O)OP(=O)(O)OC[C@H]3O[C@@H](n4cnc5c(N)ncnc54)[C@H](OP(=O)(O)O)[C@@H]3O)[C@@H](O)[C@H]2O)C=CC1` [NADPH, reference compound], for which the Km at PCC7942_orf1594 protein (in the presence of 0.5 mM octadecanoyl-CoA, read-out: Km value for NADPH) was 400 ± 80 µM. As to `CCCCCCCCCCCCCCCCCC(=O)SCCNC(=O)CCNC(=O)[C@H](O)C(C)(C)COP(=O)(O)OP(=O)(O)OC[C@H]1O[C@@H](n2cnc3c(N)ncnc32)[C@H](O)[C@@H]1OP(=O)(O)O` [octadecanoyl-CoA], the Michaelis constant (Km) on PCC7942_orf1594 protein (setting [2]) turned out to be 45 ± 20 µM. As to “Prochlorococcus marinus CCMP1986 PMM0533 (NP-892651; putative aldehyde-generating enzyme)”, the “hydrocarbon and fatty alcohol production by cotransformed E. coli MG1655 (GC/MS)” value in data set [1] is “E. coli cells transformed with only the P. marinus CCMP1986 PMM0533-bearing vector did not produce any fatty aldehydes or fatty alcohols. However, E. coli cells cotransformed with PMM0533 and PMM0532-bearing vectors produced hexadecanol, pentadecane and heptadecene”.

B1: Synechococcus elongatus PCC7942 YP-400611 (Synpcc7942-1594) acyl-ACP reductase, purified with C-terminal His-tag (protein)
chain: T1 sequence (Q54765 1-341)
Regarding B1, in the data set with octadecenoyl-ACP, the “Km for the reduction of octadecenoyl-ACP in the presence of 2 mM NADPH (in vitro reductase assay, GC/MS)” value came out at 7.8 ± 2 µM.
